Values belong to the molecule of their own block, whether it stands above or below them. Activity calls are given as the source filed them. No cut-off for these calls is given here. Bridge positions count the residues as written; N and C are the ends. Square brackets hold non-standard residues; d marks the D form. Triazole bridges read from a SMILES are 1,4-linked. Peptide text beside a SMILES is read from it. Lys(N3) = [N-]=[N+]=NCCCC[C@H](N)C(=O)O; Pra = C#CC[C@H](N)C(=O)O; Ahx = NCCCCCC(=O)O
Experiments:
[1] = target: Pannexin-1 (Mus musculus) (UniProt Q9JIP4); test: Inhibition of PANX1 in mouse B16-BL6 cells assessed as reduction in HOS-induced Yo-Pro-1 uptake by measuring reduction in green fluorescence at 12.5 uM preincubated for 10 mins followed by HOS solution addition and measured after 30 mins by fluorescence based analysis; assay type: cell-based; conditions: time 40.0 min
Sequence of Pannexin-1 (Mus musculus) (Q9JIP4 whole entry): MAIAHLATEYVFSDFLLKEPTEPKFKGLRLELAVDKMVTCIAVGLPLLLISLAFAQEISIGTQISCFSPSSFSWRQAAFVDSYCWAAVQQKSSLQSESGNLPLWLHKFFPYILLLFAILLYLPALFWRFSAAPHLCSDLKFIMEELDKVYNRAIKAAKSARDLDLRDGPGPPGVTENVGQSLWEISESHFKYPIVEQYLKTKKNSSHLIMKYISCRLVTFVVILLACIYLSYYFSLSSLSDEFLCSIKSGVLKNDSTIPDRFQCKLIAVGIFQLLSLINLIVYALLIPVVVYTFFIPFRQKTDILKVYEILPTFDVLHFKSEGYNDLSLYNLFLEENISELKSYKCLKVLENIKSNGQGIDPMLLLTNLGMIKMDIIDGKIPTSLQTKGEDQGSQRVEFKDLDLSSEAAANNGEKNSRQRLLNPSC

EA.hy 926 [2] = test: Antiinflammatory activity in TNF-alpha stimulated human EA.hy926 cells cocultured with human THP-1 cells assessed as inhibition of monocyte adhesion at 100 uM incubated for 15 mins followed by adhesion for 2 hrs relative to control; assay type: functional; conditions: EA.hy 926, 2.25 h, time 135 min
EA.hy 926 [3] = test: Cytotoxicity against human EA.hy 926 cells at 12.5 to 100 uM incubated for 30 mins with compound in HOS solution by LDH assay; assay type: toxicity, cell-based; conditions: ea.hy 926, 0.5 h, dose 12.5-100 µM
[4] = target: Pannexin-1 (Mus musculus) (UniProt Q9JIP4); test: Inhibition of PANX1 in mouse B16-BL6 cells assessed as reduction in HOS-induced ATP release preincubated for 10 mins followed by HOS solution addition and measured after 30 mins by bioluminescence analysis; assay type: cell-based; conditions: dose 6.25-400 µM, time 40.0 min
[5] = target: Pannexin-1 (Homo sapiens) (UniProt Q96RD7); test: Inhibition of PANX1 in human EA.hy 926 cells assessed as reduction in HOS-induced ATP release at 12.5 uM preincubated for 10 mins followed by HOS solution addition and measured after 30 mins by bioluminescence analysis relative to control; assay type: cell-based; conditions: time 40.0 min
Sequence of Pannexin-1 (Homo sapiens) (Q96RD7 whole entry): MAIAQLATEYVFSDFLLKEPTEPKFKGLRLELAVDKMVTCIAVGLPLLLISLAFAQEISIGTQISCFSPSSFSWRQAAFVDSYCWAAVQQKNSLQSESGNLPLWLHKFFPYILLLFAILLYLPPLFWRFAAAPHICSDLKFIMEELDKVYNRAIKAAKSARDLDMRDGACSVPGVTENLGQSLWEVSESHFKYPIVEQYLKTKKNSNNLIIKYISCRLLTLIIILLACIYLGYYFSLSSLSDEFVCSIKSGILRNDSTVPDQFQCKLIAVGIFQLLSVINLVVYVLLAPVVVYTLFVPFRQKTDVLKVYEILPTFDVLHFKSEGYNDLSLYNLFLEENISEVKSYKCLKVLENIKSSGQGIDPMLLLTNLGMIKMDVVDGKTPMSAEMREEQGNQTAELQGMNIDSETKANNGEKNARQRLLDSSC

[6] = target: Pannexin-1 (Rattus norvegicus) (UniProt P60570); test: Inhibition of PANX1 in rat H9C2 cells assessed as reduction in HOS-induced ATP release at 12.5 to 100 uM preincubated for 10 mins followed by HOS solution addition and measured after 30 mins by bioluminescence analysis; assay type: cell-based; conditions: dose 12.5-100 µM, time 40.0 min
Sequence of Pannexin-1 (Rattus norvegicus) (P60570 whole entry): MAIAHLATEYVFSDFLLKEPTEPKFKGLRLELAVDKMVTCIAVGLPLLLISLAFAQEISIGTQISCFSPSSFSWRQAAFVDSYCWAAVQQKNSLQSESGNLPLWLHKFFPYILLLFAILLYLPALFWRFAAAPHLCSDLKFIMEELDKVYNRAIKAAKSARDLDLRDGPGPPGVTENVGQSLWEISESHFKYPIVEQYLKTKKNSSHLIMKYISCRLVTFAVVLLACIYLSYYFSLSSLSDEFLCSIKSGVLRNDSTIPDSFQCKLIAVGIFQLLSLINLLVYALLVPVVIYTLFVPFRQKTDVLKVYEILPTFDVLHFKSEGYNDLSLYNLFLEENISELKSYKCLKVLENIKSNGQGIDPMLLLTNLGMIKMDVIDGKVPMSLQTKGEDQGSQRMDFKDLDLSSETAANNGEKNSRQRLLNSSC

[7] = Stability in human plasma assessed as half life at 1.2 mM incubated for 30 mins by LC-MS analysis; assay type: ADME, cell-free
[8] = target: Pannexin-1 (Mus musculus) (UniProt Q9JIP4); test: Inhibition of PANX1 in mouse B16-BL6 cells assessed as reduction in HOS-induced Yo-Pro-1 uptake by measuring reduction in green fluorescence at 100 uM preincubated for 10 mins followed by HOS solution addition and measured after 30 mins by fluorescence based analysis relative to control; assay type: cell-based; conditions: time 40.0 min
[9] = target: Pannexin-1 (Homo sapiens) (UniProt Q96RD7); test: Inhibition of PANX1 in human EA.hy 926 cells assessed as reduction in HOS-induced ATP release at 100 uM preincubated for 10 mins followed by HOS solution addition and measured after 30 mins by bioluminescence analysis; assay type: cell-based; conditions: time 40.0 min
B16-BL6 [10] = test: Cytotoxicity against mouse B16-BL6 cells at 6.25 to 100 uM incubated for 30 mins with compound in HOS solution by LDH assay; assay type: toxicity, cell-based; conditions: b16-bl6, 0.5 h, dose 6.25-100 µM
B16-BL6 [11] = test: Cytotoxicity against mouse B16-BL6 cells at 12.5 to 100 uM incubated for 30 mins with compound in HOS solution by LDH assay; assay type: toxicity, cell-based; conditions: b16-bl6, 0.5 h, dose 12.5-100 µM
[12] = target: Pannexin-1 (Mus musculus) (UniProt Q9JIP4); test: Inhibition of PANX1 in mouse B16-BL6 cells assessed as reduction in HOS-induced ATP release at 100 uM preincubated for 10 mins followed by HOS solution addition and measured after 30 mins by bioluminescence analysis relative to control; assay type: cell-based; conditions: time 40.0 min
[13] = target: Pannexin-1 (Mus musculus) (UniProt Q9JIP4); test: Inhibition of PANX1 in mouse B16-BL6 cells assessed as reduction in HOS-induced ATP release at 12.5 uM preincubated for 10 mins followed by HOS solution addition and measured after 30 mins by bioluminescence analysis; assay type: cell-based; conditions: time 40.0 min
[14] = Stability in human plasma assessed as intact parent compound level measured after 24 hrs by LC-MS analysis; assay type: ADME, cell-free; conditions: read-out: Stability
EA.hy 926 [15] = test: Antiinflammatory activity in TNF-alpha stimulated human EA.hy926 cells cocultured with human THP-1 cells assessed as inhibition of monocyte adhesion at 12.5 uM incubated for 15 mins followed by adhesion for 2 hrs; assay type: functional, cell-based; conditions: time 135.0 min
B16-BL6 [16] = test: Cytotoxicity against mouse B16-BL6 cells at 2.5 mM incubated for 30 mins with compound in HOS solution by LDH assay; assay type: toxicity, cell-based; conditions: b16-bl6, 0.5 h, 2500 µM
[17] = target: Pannexin-1 (Rattus norvegicus) (UniProt P60570); test: Inhibition of PANX1 in rat H9C2 cells assessed as reduction in HOS-induced ATP release at 2.5 mM preincubated for 10 mins followed by HOS solution addition and measured after 30 mins by bioluminescence analysis; assay type: cell-based; conditions: time 40.0 min
[18] = target: Pannexin-1 (Homo sapiens) (UniProt Q96RD7); test: Inhibition of PANX1 in human EA.hy 926 cells assessed as reduction in HOS-induced ATP release at 2.5 mM preincubated for 10 mins followed by HOS solution addition and measured after 30 mins by bioluminescence analysis; assay type: cell-based; conditions: time 40.0 min
[19] = target: Pannexin-1 (Mus musculus) (UniProt Q9JIP4); test: Inhibition of PANX1 in mouse B16-BL6 cells assessed as reduction in HOS-induced Yo-Pro-1 uptake by measuring reduction in green fluorescence at 2.5 mM preincubated for 10 mins followed by HOS solution addition and measured after 30 secs to 30 mins by fluorescence based analysis; assay type: cell-based; conditions: time 10.5-40 min

Compound: CC(C)[C@H](NC(=O)[C@H](Cc1ccccc1)NC(=O)[C@H](C)NC(=O)[C@H](C)NC(=O)[C@H](CCC(N)=O)NC(=O)[C@H](CCCNC(=N)N)NC(=O)[C@@H](N)Cc1c[nH]c2ccccc12)C(=O)N[C@@H](CC(=O)O)C(=O)N[C@@H](CO)C(=O)N[C@@H](Cc1ccc(O)cc1)C(=O)O (H-WRQAAFVDSY-OH)
- inhibition [1]: inactive
- inhibition at 100 µM (EA.hy 926 [2]): 17%
- Activity (EA.hy 926 [3]): Non-Toxic
- inhibition [4]: Dose-Dependent Effect
- inhibition [5]: 35%
- inhibition [6]: inactive
- half-life at 1200 µM [7]: 2.27 min
- inhibition [8]: 14%
- inhibition [9]: Active
- Activity (B16-BL6 [10]): Non-Toxic

- inhibition [12]: 48%
- inhibition [13]: Active
Compound: CC(=O)N[C@H]1Cc2cn(nn2)CCCC[C@@H](C(=O)N[C@H]2Cc3cn(nn3)CCCC[C@@H](C(=O)N[C@@H](Cc3ccc(O)cc3)C(N)=O)NC(=O)[C@H](CC(=O)O)NC(=O)[C@H](C(C)C)NC(=O)[C@H](Cc3ccccc3)NC2=O)NC(=O)[C@H](CCC(N)=O)NC(=O)[C@H](CCCNC(=N)N)NC(=O)[C@H](Cc2c[nH]c3ccccc23)NC1=O (Ac-[Pra]WRQ[Lys(N3)][Pra]FVD[Lys(N3)]Y-NH2; triazole 1-5, 6-10)
- Activity (B16-BL6 [11]): Non-Toxic

Compound: CC(C)[C@@H]1NC(=O)[C@H](Cc2ccccc2)NC(=O)[C@@H](NC(=O)[C@@H]2CCCCn3cc(nn3)C[C@H](NC(=O)CCCCCNC(=O)[C@@H](N)CCCCN)C(=O)N[C@@H](Cc3c[nH]c4ccccc34)C(=O)N[C@@H](CCCNC(=N)N)C(=O)N[C@@H](CCC(N)=O)C(=O)N2)Cc2cn(nn2)CCCC[C@@H](C(=O)N[C@@H](Cc2ccc(O)cc2)C(N)=O)NC(=O)[C@H](CC(=O)O)NC1=O (H-K[Ahx][Pra]WRQ[Lys(N3)][Pra]FVD[Lys(N3)]Y-NH2; triazole 3-7, 8-12)
- Activity (EA.hy 926 [3]): Non-Toxic
- inhibition [5]: 25%
- remaining at 24 h [14]: 20%
- inhibition (EA.hy 926 [15]): Active

- inhibition [17]: inactive
- inhibition [18]: Active
- inhibition [19]: Active
Compound: CCCN(CCC)S(=O)(=O)c1ccc(C(=O)O)cc1 [PROBENECID]
- Activity (B16-BL6 [16]): Non-Toxic
